Measurements from patent US9856293B2, “Methods for inducing nestin expression of astrocytes by nestin-inducing synthetic peptides derived from the BC-box of the SOCS6 protein” (TOAGOSEI CO. LTD., priority 2013, dated 2018).
Ends that are not written are not given here.

Assays:
Format in all cases: cell-based
[1] = test system: astrocytes derived from rat brain hippocampus (R-HiAs-521); test: Nestin expression inducing activity, nestin gene expression by qRT-PCR, astrocytes derived from the hippocampus; conditions: corrected with Actin β, peptide 5 μM, 2 days, FIG. 1
Experimental: (§1) Among the synthetic peptides obtained in Example 1, sample 1 (i.e. the nestin-inducing synthetic peptide of the present invention) was evaluated for nestin expression inducing activity by quantifying the expression level of the nestin gene. Cells used for the test were cultured cells of astrocytes derived from rat brain hippocampus (R-HiAs-521: available from Lonza). The evaluation test is detailed as follows.
The astrocytes derived from rat brain hippocampus were inoculated into a 6-well cell culture plate at a density of 1.0×10^5 cells/well. […]
After the incubation was completed, cultured cells from each experimental sample were washed with Cold PBS (−), and total RNA was extracted and purified using a commercially available RNA extraction and purification kit (NUCLEOSPIN™ RNA/Protein kit: available from Macherey Nagel). […] The purified RNA was quantified using Agilent 2100 Bioanalyzer (available from Agilent Technologies).
The purified RNA was subjected to qRT-PCR to examine the expression level of the nestin gene. […] RT-PCR employed the two-step RT-PCR method and quantitative PCR employed the TAQMAN® method. […]
The cDNA obtained in RT-PCR was then used as a template for quantitative PCR. […] Quantitative PCR reaction was carried out under the conditions of incubation at 95° C. for 10 seconds followed by 45 cycles of 95° C. for 15 seconds, 62° C. for 20 seconds and 72° C. for 20 seconds. […]

[2] = test system: astrocytes derived from rat brain hippocampus (R-HiAs-521); test: Nestin expression inducing activity, western blot analysis of nestin and GFAP, astrocytes derived from the hippocampus; conditions: peptide 5 μM, 3 days
Experimental: as §1, with “western blot analysis using an anti-nestin antibody.” for “quantifying the expression level of the nestin gene.”, “Lonza). A comparative example was carried out without addition of the peptide.” for “Lonza).”
In the same manner as in Example 2, the astrocytes derived from rat brain hippocampus were incubated in the presence of the peptide at a peptide concentration of 5 μM for 3 days. After the incubation was completed, cultured cells from each experimental sample were washed with Cold PBS (−), and total protein was extracted using a commercially available protein extraction and purification kit (NucleoSpin™ RNA/Protein kit: available from Macherey Nagel). All procedures were carried out in the absence of proteases according to the instruction attached to the kit. The concentration of the extracted protein was quantified using RC DC Protein assay (available from BIO RAD).
According to the SDS (sodium dodecyl sulphate)-polyacrylamide electrophoresis (SDS-PAGE) and western blot analysis as described below, expression of nestin and GFAP in each experimental sample was examined. An internal standard used in the series of procedures was the GAPDH protein.
Specifically, proteins obtained from each experimental sample and a molecular weight marker (MagicMark™ XP Western Protein Standard: available from Life Technologies) were injected to a well of an SDS-polyacrylamide gel (precast gel for electrophoresis: available from Oriental Instruments Co., Ltd.) and SDS-PAGE was carried out. Electrophoresis of nestin was carried out on a 7.5% SDS-polyacrylamide gel and electrophoresis of GFAP and the GAPDH protein was carried out on a 5-20% SDS-polyacrylamide gel.
The proteins separated by SDS-PAGE were transferred (blotting) onto a PVDF (polyvinylidene difluoride) membrane which was then blocked in Perfect-Block (available from MoBiTec) diluted to 5% in PBS (−) containing Tween 20™ (hereinafter referred to as PBST (−)).
Nestin, GFAP and the GAPDH protein were detected with primary antibodies, an anti-nestin antibody (murine, available from Merck Millipore), an anti-GFAP antibody (murine, available from Progen Biotechnik) and an anti-GAPDH antibody (murine, available from Merck Millipore) diluted 500-, 5000- and 10000-fold, respectively, in PBST (−) by the reaction for 1 hour at room temperature. […]
Target proteins were then detected by reaction with the ECL prime Western blotting detection reagent (available from GE Healthcare) using the Luminescent image analyser LAS-3000 (available from Fujifilm Corporation). […]

[3] = test system: astrocytes derived from rat brain cerebral cortex (R-CxAs-520); test: Nestin expression inducing activity, nestin gene expression by qRT-PCR, astrocytes derived from the cerebral cortex; conditions: corrected with Actin β, peptide 10 μM, 2 days, FIG. 3
Experimental: as §1, with “cerebral cortex (R-CxAs-520:” for “hippocampus (R-HiAs-521:”
The astrocytes derived from rat cerebral cortex were inoculated into a 6-well cell culture plate at a density of 1.0×10^5 cells/well. The cells were incubated in the AG medium overnight in a CO2 incubator at 37° C. and 5% CO2.
After the overnight incubation, the medium was replaced with an AG medium containing the peptide of sample 1 at the amount of 10 μM, and the incubation was continued under the same condition for 2 more days. A comparative example was carried out without addition of the peptide.
After the incubation was completed, total RNA was extracted from cultured cells from each experimental sample in the same manner as in Example 2. […]
The expression level of the nestin gene in each experimental sample was corrected with the expression level of Actin β in each experimental sample. The expression level of each gene is expressed as a value relative to the expression level of the gene in the sample without addition of the peptide being regarded as 1.

[4] = test system: astrocytes derived from rat cerebral cortex (R-CxAs-520); test: Nestin expression inducing activity, western blot analysis of nestin and GFAP, astrocytes derived from the cerebral cortex; conditions: peptide 5 μM, 2 days; for expression of GFAP compared to the culture without addition of the peptide: anti-GFAP antibody; for expression of nestin compared to the culture without addition of the peptide: anti-nestin antibody, FIG. 4
Experimental: Among the synthetic peptides obtained in Example 1, samples 1 to 3 were evaluated for nestin expression inducing activity by western blot analysis using an anti-nestin antibody. Cells used for the test were cultured cells of astrocytes derived from rat cerebral cortex (R-CxAs-520: available from Lonza). A comparative example was carried out without addition of the peptide. The evaluation test is detailed as follows.
In the same manner as in Example 4, the astrocytes derived from rat cerebral cortex were incubated in the presence of the peptide at a peptide concentration of 5 μM for 2 days. After the incubation was completed, total protein was extracted from cultured cells from each experimental sample in the same manner as in Example 3.
SDS-PAGE and western blot analysis were then carried out in the same manner as in Example 3 to examine expression of nestin and GFAP in each experimental sample. An internal standard used in the series of procedures was the GAPDH protein.
Lanes 1, 2, 3 and 4 are the results without addition of the peptide, with addition of sample 2, with addition of sample 3 and with addition of sample 1, respectively.

## SLQYLCRFVIRQYTRKKRTLRKNDRKKR (SLQYLCRFVIRQYTRKKRTLRKNDRKKR-NH2) [sample 1]
[1]
  expression of the nestin gene compared to the culture without addition of the peptide: significant increase
[2]; anti-GFAP antibody
  expression of GFAP compared to the culture without addition of the peptide: difference in expression of GFAP was not confirmed
[2]; anti-nestin antibody, FIG. 2
  expression of nestin compared to the culture without addition of the peptide: significant increase
[2]
  co-expression of GFAP and nestin: co-expressed
  expression of nestin, times higher than the culture without addition of the peptide: ≥ 2 times
[3]
  expression of the nestin gene compared to the culture without addition of the peptide: significant increase
[4]
  expression of GFAP compared to the culture without addition of the peptide: difference in expression of GFAP was not confirmed
  expression of nestin compared to the culture without addition of the peptide: significant increase
  co-expression of GFAP and nestin: co-expressed
  expression of nestin, times higher than the culture without addition of the peptide: ≥ 2 times

## NLQDLCRIKIRQCIGKKRTLRKNDRKKR (NLQDLCRIKIRQCIGKKRTLRKNDRKKR-NH2; cysteine pairing not given here) [sample 2, reference compound]
[4]
  expression of GFAP compared to the culture without addition of the peptide: difference in expression of nestin or GFAP was not confirmed
  expression of nestin compared to the culture without addition of the peptide: difference in expression of nestin or GFAP was not confirmed

## TLHQQCIRVLKNNIDKKRTLRKNDRKKR (TLHQQCIRVLKNNIDKKRTLRKNDRKKR-NH2) [sample 3, reference compound]
[4]
  expression of GFAP compared to the culture without addition of the peptide: difference in expression of nestin or GFAP was not confirmed
  expression of nestin compared to the culture without addition of the peptide: difference in expression of nestin or GFAP was not confirmed
